Results reported in PubChem BioAssay (NCI).
Values joined by “and” are separate entries in the source; they are usually repeats but may differ in a detail not shown here. Identical values can stand only once.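 Compound exposure: 48 hours, 5 concentrations, 96-well plates. GI50 = concentration required for 50% inhibition of growth. The concentration for full growth arrest is given as TGI.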

Legend:
Test in all cases: NCI-60 cell line screen, 48 h
A498 renal = tested on: A498 renal
CAKI-1 renal = tested on: CAKI-1 renal
HOP-62 NSCLC = tested on: HOP-62 NSCLC
HS 578T breast = tested on: HS 578T breast
MCF7 breast = tested on: MCF7 breast
OVCAR-8 ovarian = tested on: OVCAR-8 ovarian
SK-MEL-2 melanoma = tested on: SK-MEL-2 melanoma
SN12C renal = tested on: SN12C renal
UACC-257 melanoma = tested on: UACC-257 melanoma
UO-31 renal = tested on: UO-31 renal

## OCC1OC(n2cnc3c(NCc4ccccc4O)ncnc32)C(O)C1O (stereo not given)
A498 renal
  GI50: 1.21 µM
  TGI: 6.09 µM
CAKI-1 renal
  GI50: 0.349 µM
  TGI: 9.43 µM
HOP-62 NSCLC
  GI50: 2.33 µM
  TGI: 18.2 µM
HS 578T breast
  GI50: 1.96 µM
  TGI: > 58.6 µM
MCF7 breast
  GI50: 2.05 µM
  TGI: 17.1 µM
OVCAR-8 ovarian
  GI50: 0.225 µM
  TGI: 8.09 µM
SK-MEL-2 melanoma
  GI50: 0.328 µM
  TGI: 1.83 µM
SN12C renal
  GI50: 0.178 µM
  TGI: 20 µM
UACC-257 melanoma
  GI50: > 83.6 µM
  TGI: > 100 µM
UO-31 renal
  GI50: 0.717 µM
  TGI: 13.8 µM

## C(=C\c1ccc(OCC2CO2)cc1)/C1=NCOC1 (stereo not given)
A498 renal
  GI50: 21.9 µM
  TGI: 43.2 µM
CAKI-1 renal
  GI50: 16.3 µM
  TGI: 40.8 µM
HOP-62 NSCLC
  GI50: 26 µM
  TGI: 65.3 µM
HS 578T breast
  GI50: 16 µM
  TGI: 54.2 µM
MCF7 breast
  GI50: 4.65 µM
  TGI: 46 µM
OVCAR-8 ovarian
  GI50: 5.81 µM
  TGI: 28 µM
SK-MEL-2 melanoma
  GI50: 10 µM
  TGI: 36 µM
SN12C renal
  GI50: 10.6 µM
  TGI: 25.9 µM
UACC-257 melanoma
  GI50: 6.15 µM
  TGI: 26.6 µM
UO-31 renal
  GI50: 3.64 µM
  TGI: 12.8 µM

## O=c1[nH]c2ccccc2n1C1CCN(CCOc2ccccc2)CC1
A498 renal
  GI50: 17.1 µM
  TGI: 99.6 µM
CAKI-1 renal
  GI50: 14.9 µM
  TGI: 52.7 µM
HOP-62 NSCLC
  GI50: 50.3 µM
  TGI: > 100 µM
HS 578T breast
  GI50: 20.8 µM
  TGI: 77.6 µM
MCF7 breast
  GI50: 26.3 µM
  TGI: > 100 µM
OVCAR-8 ovarian
  GI50: 13.3 µM
  TGI: > 100 µM
SK-MEL-2 melanoma
  GI50: 32.8 µM
  TGI: > 100 µM
SN12C renal
  GI50: 34.3 µM
  TGI: > 100 µM
UACC-257 melanoma
  GI50: 70.7 µM
  TGI: > 100 µM
UO-31 renal
  GI50: 34.1 µM
  TGI: > 100 µM

## CN(C)C/C=C/C(=O)Nc1cc2c(Nc3cccc(Cl)c3F)ncnc2cc1OCCOC(F)F
A498 renal
  GI50: 0.423 µM
  TGI: 2.22 µM
CAKI-1 renal
  GI50: < 0.01 µM
  TGI: 1.65 µM
HOP-62 NSCLC
  GI50: 1.99 µM
  TGI: 11.5 µM
HS 578T breast
  GI50: 1.46 µM
  TGI: 7.02 µM
MCF7 breast
  GI50: 1.49 µM
  TGI: 12 µM
OVCAR-8 ovarian
  GI50: 1.11 µM
  TGI: 12.4 µM
SK-MEL-2 melanoma
  GI50: 1.94 µM
  TGI: 6.27 µM
SN12C renal
  GI50: 0.317 µM
  TGI: 7.15 µM
UACC-257 melanoma
  GI50: 3.59 µM
  TGI: 15.5 µM
UO-31 renal
  GI50: < 0.0187 µM
  TGI: 6.14 µM

## Cc1ccc(C2C3Cc4ccccc4C3=NN2c2ccc(S(=O)(=O)NC(=O)Nc3ccccc3)cc2)cc1 (stereo not given)
A498 renal
  GI50: 15.6 µM
  TGI: 30.7 µM
CAKI-1 renal
  GI50: 14.6 µM
  TGI: 37.9 µM
HOP-62 NSCLC
  GI50: 19.3 µM
  TGI: 63 µM
HS 578T breast
  GI50: 17.4 µM
  TGI: 49.9 µM
MCF7 breast
  GI50: 17.1 µM
  TGI: > 100 µM
OVCAR-8 ovarian
  GI50: 21.6 µM
  TGI: > 100 µM
SK-MEL-2 melanoma
  GI50: 14.2 µM
  TGI: 31.5 µM
SN12C renal
  GI50: 14 µM
  TGI: 26.9 µM
UACC-257 melanoma
  GI50: 18.6 µM
  TGI: 37.8 µM
UO-31 renal
  GI50: 11.6 µM
  TGI: 28.4 µM

## COC(=O)[C@H](CCCCNC(=O)OCc1ccccc1)NC(=O)[C@@H](NC(=O)Nc1cc(C(F)(F)F)cc(C(F)(F)F)c1)C(C)C
A498 renal
  GI50: > 10 µM
  TGI: > 10 µM
CAKI-1 renal
  GI50: > 10 µM
  TGI: > 10 µM
HOP-62 NSCLC
  GI50: > 10 µM
  TGI: > 10 µM
HS 578T breast
  GI50: > 10 µM
  TGI: > 10 µM
MCF7 breast
  GI50: > 10 µM
  TGI: > 10 µM
OVCAR-8 ovarian
  GI50: > 10 µM
  TGI: > 10 µM
SK-MEL-2 melanoma
  GI50: > 10 µM
  TGI: > 10 µM
SN12C renal
  GI50: > 10 µM
  TGI: > 10 µM
UACC-257 melanoma
  GI50: > 10 µM
  TGI: > 10 µM
UO-31 renal
  GI50: > 10 µM
  TGI: > 10 µM

## Cc1ccc(NC2=CC(=O)C(=O)c3ccccc32)cc1
A498 renal
  GI50: 1.32 µM
  TGI: 5.41 µM
CAKI-1 renal
  GI50: 3.14 µM
  TGI: 16.5 µM
HOP-62 NSCLC
  GI50: 1.8 µM
  TGI: 4.33 µM
HS 578T breast
  GI50: 2.54 µM
  TGI: 7.26 µM
MCF7 breast
  GI50: 1.54 µM
  TGI: 3.63 µM
OVCAR-8 ovarian
  GI50: 2.4 µM
  TGI: 7.82 µM
SK-MEL-2 melanoma
  GI50: 1.86 µM
  TGI: 4.06 µM
SN12C renal
  GI50: 1.65 µM
  TGI: 3.32 µM
UACC-257 melanoma
  GI50: 1.43 µM
  TGI: 2.8 µM
UO-31 renal
  GI50: 1.17 µM
  TGI: 3.79 µM

## Cc1cc(OCc2nn(CN3CCN(C)CC3)c(=S)n2/N=C/c2ccc(F)cc2)ccc1Cl
A498 renal
  GI50: 16.8 µM
  TGI: 31.3 µM
CAKI-1 renal
  GI50: 20.1 µM
  TGI: 40.9 µM
HOP-62 NSCLC
  GI50: 18.7 µM
  TGI: 34.4 µM
HS 578T breast
  GI50: 33.1 µM
  TGI: 88.7 µM
MCF7 breast
  GI50: 18.4 µM
  TGI: 34.4 µM
OVCAR-8 ovarian
  GI50: 18 µM
  TGI: 32.2 µM
SK-MEL-2 melanoma
  GI50: 18.5 µM
  TGI: 37.6 µM
SN12C renal
  GI50: 16.9 µM
  TGI: 31 µM
UACC-257 melanoma
  GI50: 19.2 µM
  TGI: 36.7 µM
UO-31 renal
  GI50: 17.6 µM
  TGI: 32.9 µM

## Nc1nc(N)c(-c2ccc(Cl)c(Cl)c2)c(CP(Cl)(Cl)(Cl)Br)n1
A498 renal
  GI50: 22.9 µM
  TGI: > 100 µM
CAKI-1 renal
  GI50: 14.7 µM
  TGI: > 100 µM
HOP-62 NSCLC
  GI50: 72.7 µM
  TGI: > 100 µM
HS 578T breast
  GI50: 24.4 µM
  TGI: > 100 µM
MCF7 breast
  GI50: 16.1 µM
  TGI: > 100 µM
OVCAR-8 ovarian
  GI50: 6.51 µM
  TGI: > 100 µM
SK-MEL-2 melanoma
  GI50: 17.9 µM
  TGI: 48.7 µM
SN12C renal
  GI50: 6.47 µM
  TGI: > 100 µM
UACC-257 melanoma
  GI50: 8.35 µM
  TGI: 84.7 µM
UO-31 renal
  GI50: 17.5 µM
  TGI: > 100 µM

## O=C(CCl)Nc1ccc(Cc2ccc(NC(=O)CCl)cc2)cc1
A498 renal
  GI50: 18.7 µM
  TGI: 94.1 µM
CAKI-1 renal
  GI50: 1.62 µM
  TGI: 3.38 µM
HOP-62 NSCLC
  GI50: 2.38 µM
  TGI: 6.1 µM
HS 578T breast
  GI50: 5.37 µM
  TGI: > 100 µM
MCF7 breast
  GI50: 1.54 µM
  TGI: > 100 µM
OVCAR-8 ovarian
  GI50: 3.17 µM
  TGI: > 100 µM
SK-MEL-2 melanoma
  GI50: 2.46 µM
  TGI: 7.54 µM
SN12C renal
  GI50: 2.38 µM
  TGI: > 100 µM
UACC-257 melanoma
  GI50: 2.78 µM
  TGI: 9.46 µM
UO-31 renal
  GI50: 2.77 µM
  TGI: > 23.4 µM

## CC[Si](CC)(CC)OC1[C@@H](O[Si](CC)(CC)CC)[C@@H](CNC(=O)NC)O[C@H]1n1cnc2c(NC(=O)Nc3ccccc3)ncnc21 (stereo not given in full)
A498 renal
  GI50: 1.61 µM
  TGI: 6.38 µM
CAKI-1 renal
  GI50: 2.76 µM
  TGI: 12.2 µM
HOP-62 NSCLC
  GI50: 16 µM
  TGI: > 100 µM
HS 578T breast
  GI50: 2.66 µM
  TGI: 39.5 µM
MCF7 breast
  GI50: 3.24 µM
  TGI: 14.3 µM
OVCAR-8 ovarian
  GI50: 3.89 µM
  TGI: > 100 µM
SK-MEL-2 melanoma
  GI50: 2.49 µM
  TGI: 5.9 µM
SN12C renal
  GI50: 2.04 µM
  TGI: 4.92 µM
UACC-257 melanoma
  GI50: 2.81 µM
  TGI: 55.8 µM
UO-31 renal
  GI50: 2.8 µM
  TGI: 18.1 µM

## O=c1[nH]c(=O)n(C2OC(CO)C(O)C2O)cc1F (stereo not given)
A498 renal
  GI50: 0.0876 µM
  TGI: 5.61 µM
CAKI-1 renal
  GI50: 0.0104 µM
  TGI: 18.1 µM
HOP-62 NSCLC
  TGI: 8.59 µM
HS 578T breast
  GI50: 0.031 µM
  TGI: > 100 µM
MCF7 breast
  GI50: 0.00603 µM and < 0.0164 µM
  TGI: > 56.4 µM
OVCAR-8 ovarian
  TGI: > 100 µM
SK-MEL-2 melanoma
  TGI: > 84.6 µM
SN12C renal
  TGI: > 100 µM
UACC-257 melanoma
  GI50: 1.33 µM
  TGI: 53.4 µM
UO-31 renal
  TGI: 1.91 µM

## OCC1OC(n2cnc3c(NCc4ccco4)ncnc32)C(O)C1O (stereo not given)
A498 renal
  GI50: 1.59 µM
  TGI: 5.5 µM
CAKI-1 renal
  GI50: 0.369 µM
  TGI: 4.33 µM
HOP-62 NSCLC
  GI50: 3.79 µM
  TGI: > 48.9 µM
HS 578T breast
  GI50: 3.38 µM
  TGI: > 100 µM
MCF7 breast
  GI50: 0.72 µM
  TGI: > 25.5 µM
OVCAR-8 ovarian
  GI50: 0.16 µM
  TGI: 3.6 µM
SK-MEL-2 melanoma
  GI50: 5.43 µM
  TGI: 31.6 µM
SN12C renal
  GI50: 0.386 µM
  TGI: > 100 µM
UACC-257 melanoma
  GI50: 52.5 µM
  TGI: > 100 µM
UO-31 renal
  GI50: 0.567 µM
  TGI: 53.7 µM
